From patent publication US20090170880A1, “Methods and Means for the Treatment of Cancer” (priority 2007, published 2009)
Read-outs that look alike come from different tables or passages of the source.

Key:
murine P-gp (Mdr1a) = molecular target: T1, murine P-gp (Mdr1a) (Mus musculus, UniProt P21447); assay: Transwell transport of temozolomide, LLC-Mdr1a cells; assay type: in vitro ADME; conditions: 40 μg/ml, LLC-Mdr1a versus LLC-PK1 monolayers
T1 construct: expressed in transfected cells; host or cells: LLC-PK1 (porcine kidney) cells transduced with murine Mdr1a
Description: (§1) The parental LLC pig-kidney (PK1) cell line and sublines transduced with murine Mdr1a or human MDR1 (12) and the parental Madine Darby Canine Kidney (MDCK) and murine Bcrp1 or human BCRP transduced sublines (13) were seeded on Transwell microporous polycarbonate membrane filters (3.0 μm pore size, 24 mm diameter; Costar Corning, N.Y., USA) at a density of 1×10^6 cells per well in 2 ml of MEM medium (Invitrogen Corporation, Carlsbad, Calif.) containing 10% v/v fetal calf serum. Cells were incubated at 37° C. in 5% CO2 for three days with one medium replacement after the first day. Two hours before the start of the experiment the medium in both compartments was replaced with 2 ml of OptiMEM medium (InVitrogen Corp.). At the start of the experiment the medium in the apical or basolateral compartment was replaced with 2 ml of freshly prepared OptiMEM medium containing 40 μg/ml of temozolomide. […] Zosuquidar (LY335979, 5 μM) was always added to the medium when doing experiments with MDCK cell lines to inhibit endogenous canine P-gp. Samples of 50 μl were collected every 30 min, for up to 2 h after start of the experiment. Because temozolomide is instable in medium at 37° C., we replaced one ml of the donor compartment by a freshly prepared aliquot every 30 min. […]

[1] = Plasma exposure of oral temozolomide in mice; assay type: in vivo; conditions: mouse, 100 mg/kg, read-out: AUC0-7 h, plasma
Description: We also established the drug exposure in wild-type (n=18) and Bcrp1/Mdr1ab knockout mice (n=19) receiving an oral dose of 100 mg/kg by gavage. Blood was sampled from the tail at 15, 30 min and 1, 4 and 7 h post drug administration to obtain a full curve from each animal.
Plasma and brain AUC0-7h values and standard errors were calculated by the linear trapezoidal rule using standard equations (14). The plasma half-life of temozolomide was calculated by linear regression analysis after log transformation of the concentration data using Microsoft Excel 2003. The brain-to-plasma ratio was calculated for each individual animal. The two-sided unpaired Student's t-test was used for statistical analysis of AUC values. Bonferroni's test for multiple comparisons was calculated using SPSS (v12.0.1; SPSS Inc, Chicago, Ill., USA) for brain and plasma levels and brain-to-plasma ratios determined at 2 h post temozolomide administration with the inhibitors and for analyzing the results of the in vivo efficacy study.

murine Bcrp1 = molecular target: T2, murine Bcrp1 (Mus musculus, UniProt Q7TMS5); assay: Transwell transport of temozolomide, MDCKII-Bcrp1 cells, without or with inhibitors; assay type: in vitro ADME; conditions: 40 μg/ml, MDCK-Bcrp1 versus MDCK parent, zosuquidar 5 μM
T2 construct: expressed in transfected cells; host or cells: MDCKII (canine kidney) cells transduced with murine Bcrp1
T2 sequence (Q7TMS5 1-657): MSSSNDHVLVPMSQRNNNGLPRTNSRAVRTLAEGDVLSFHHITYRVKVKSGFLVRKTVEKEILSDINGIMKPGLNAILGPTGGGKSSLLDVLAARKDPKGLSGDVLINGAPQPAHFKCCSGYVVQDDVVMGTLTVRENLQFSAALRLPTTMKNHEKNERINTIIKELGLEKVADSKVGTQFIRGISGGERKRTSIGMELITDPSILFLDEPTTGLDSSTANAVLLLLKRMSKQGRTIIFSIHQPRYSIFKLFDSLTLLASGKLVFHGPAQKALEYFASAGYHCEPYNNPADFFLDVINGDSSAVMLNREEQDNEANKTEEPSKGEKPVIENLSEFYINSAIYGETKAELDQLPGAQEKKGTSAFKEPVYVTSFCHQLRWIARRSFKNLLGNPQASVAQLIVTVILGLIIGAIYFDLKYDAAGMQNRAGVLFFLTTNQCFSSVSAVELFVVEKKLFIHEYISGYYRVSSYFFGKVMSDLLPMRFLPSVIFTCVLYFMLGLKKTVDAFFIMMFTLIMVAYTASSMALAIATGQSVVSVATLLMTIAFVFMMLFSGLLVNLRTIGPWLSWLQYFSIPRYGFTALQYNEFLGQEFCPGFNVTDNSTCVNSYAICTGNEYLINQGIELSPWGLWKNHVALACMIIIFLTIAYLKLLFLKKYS
Description: The parental LLC pig-kidney (PK1) cell line and sublines transduced with murine Mdr1a or human MDR1 (12) and the parental Madine Darby Canine Kidney (MDCK) and murine Bcrp1 or human BCRP transduced sublines (13) were seeded on Transwell microporous polycarbonate membrane filters (3.0 μm pore size, 24 mm diameter; Costar Corning, N.Y., USA) at a density of 1×10^6 cells per well in 2 ml of MEM medium (Invitrogen Corporation, Carlsbad, Calif.) containing 10% v/v fetal calf serum. Cells were incubated at 37° C. in 5% CO2 for three days with one medium replacement after the first day. Two hours before the start of the experiment the medium in both compartments was replaced with 2 ml of OptiMEM medium (InVitrogen Corp.). At the start of the experiment the medium in the apical or basolateral compartment was replaced with 2 ml of freshly prepared OptiMEM medium containing 40 μg/ml of temozolomide. […] Zosuquidar (LY335979, 5 μM) was always added to the medium when doing experiments with MDCK cell lines to inhibit endogenous canine P-gp. Samples of 50 μl were collected every 30 min, for up to 2 h after start of the experiment. Because temozolomide is instable in medium at 37° C., we replaced one ml of the donor compartment by a freshly prepared aliquot every 30 min. [^3H]-inulin (approximately 7 kBq per well) was added to the same compartment as temozolomide to check the integrity of the cell layer. Wells showing a leakage of more than 1.5% per hour were excluded.
First, we took samples every 30 min for up to 2 h instead of every hour for up to 4 h. Secondly, to maintain adequate temozolomide levels at the donor side throughout the experiment we replaced 1 ml of the 2 ml of medium at the donor side of the transwell at each sampling time by 1 ml of a freshly prepared temozolomide solution in medium.

[2] = tested on: recurrent grade 3 and grade 4 gliomas, GBM; conditions: cited from earlier work
U87 = assay: Antitumor response against U87 tumor; assay type: in vivo; conditions: one single dose of 25 mg/kg, results not shown
[3] = Stability of temozolomide in culture medium; assay type: physicochemical
[4] = Transwell experiments, recovery of temozolomide in acceptor compartment; assay type: in vitro ADME; conditions: after 30 min, transport medium pH 7.4
Description: as §1

T1 sequence (P21447 whole entry): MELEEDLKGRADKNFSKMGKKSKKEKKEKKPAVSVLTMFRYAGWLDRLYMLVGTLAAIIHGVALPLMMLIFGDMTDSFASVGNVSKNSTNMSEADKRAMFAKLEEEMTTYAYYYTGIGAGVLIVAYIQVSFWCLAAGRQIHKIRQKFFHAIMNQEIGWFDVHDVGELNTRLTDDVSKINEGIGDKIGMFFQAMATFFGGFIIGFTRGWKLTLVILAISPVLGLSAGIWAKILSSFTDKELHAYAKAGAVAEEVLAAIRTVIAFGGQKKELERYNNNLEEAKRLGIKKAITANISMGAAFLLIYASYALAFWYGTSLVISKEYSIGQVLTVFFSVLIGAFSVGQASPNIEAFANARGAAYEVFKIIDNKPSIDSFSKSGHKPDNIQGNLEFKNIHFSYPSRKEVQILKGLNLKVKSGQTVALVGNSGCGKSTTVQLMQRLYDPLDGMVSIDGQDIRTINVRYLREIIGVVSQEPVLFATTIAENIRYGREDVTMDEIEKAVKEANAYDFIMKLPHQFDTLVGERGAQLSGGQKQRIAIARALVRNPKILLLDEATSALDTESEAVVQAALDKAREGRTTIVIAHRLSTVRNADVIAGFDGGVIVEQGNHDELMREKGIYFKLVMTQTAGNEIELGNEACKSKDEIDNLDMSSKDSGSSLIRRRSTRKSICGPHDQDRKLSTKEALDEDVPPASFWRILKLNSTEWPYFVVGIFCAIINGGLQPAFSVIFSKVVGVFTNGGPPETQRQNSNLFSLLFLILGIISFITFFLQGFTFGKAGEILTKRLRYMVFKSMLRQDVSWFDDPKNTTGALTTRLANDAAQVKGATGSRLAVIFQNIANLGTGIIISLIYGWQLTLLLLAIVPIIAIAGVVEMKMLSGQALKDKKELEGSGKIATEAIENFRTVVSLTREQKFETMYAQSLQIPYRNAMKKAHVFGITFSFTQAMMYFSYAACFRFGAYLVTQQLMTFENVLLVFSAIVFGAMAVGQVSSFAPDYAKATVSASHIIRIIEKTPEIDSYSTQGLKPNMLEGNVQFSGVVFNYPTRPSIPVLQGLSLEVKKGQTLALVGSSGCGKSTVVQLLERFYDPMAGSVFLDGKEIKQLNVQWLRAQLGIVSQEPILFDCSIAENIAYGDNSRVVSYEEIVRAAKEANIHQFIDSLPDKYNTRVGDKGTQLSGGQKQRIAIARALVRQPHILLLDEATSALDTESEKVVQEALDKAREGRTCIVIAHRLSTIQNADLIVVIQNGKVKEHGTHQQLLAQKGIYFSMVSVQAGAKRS

- transport of temozolomide by murine P-gp (murine P-gp (Mdr1a); listed as Temozolomide): not readily detected
- AUC(0-t) ([1]; Bcrp, Mdr1ab knockout mice): 164 ± 4.5 µg·h/mL
- AUC(0-t) ([1]; Wild-type mice): 154 ± 4.1 µg·h/mL
- transport of temozolomide by murine Bcrp1 (murine Bcrp1): clear vectorial transport
- transport of temozolomide by murine Bcrp1 (murine Bcrp1; listed as Temozolomide): evident
- half-life ([3]; culture medium at 37° C.): ~30 min
- degradation ([3]; pH 7.4, in 30 min): about 50%
- dose recovered in the acceptor compartment [4]: at least 5%
SMILES: Cn1nnc2c(C(N)=O)ncn2c1=O [temozolomide, 8-carbamoyl-3-methyl-[3H]-imidazo[5,1-d]-1,2,3,5-tetrazin-4-one]
- transport of temozolomide by murine P-gp (murine P-gp (Mdr1a)): very limited if any evidence for transport
- progression free survival compared to procarbazine ([2]; patients): significantly longer
- survival, radiotherapy with concomitant and adjuvant temozolomide versus radiotherapy alone ([2]; phase III trial): significant survival benefit
- objective response rate ([2]; recurrent grade 3 gliomas): 35%
- objective response rate ([2]; recurrent grade 4 gliomas): 8%
- antitumor response (U87): significant antitumor response
